ChEMBL document CHEMBL5696442, “Discovery of type II inhibitors of TGFβ-activated kinase 1 (TAK1) and mitogen-activated protein kinase kinase kinase kinase 2 (MAP4K2)” (J Med Chem, 2015)
Active and inactive are the calls of the source. The rule behind the calls is not given here.

How the values were obtained:
[1] = biological target: T1, Phosphatidylinositol 5-phosphate 4-kinase type-2 alpha (Homo sapiens) (UniProt P48426); experiment: Inhibition of PIP4K2A ATP labeling site harbouring AKELPTLKDNDFINEGQK in human Huh-7 cell lysate at 1 uM by KiNativ Profiling analysis relative to control; assay type: subcellular
T1 sequence (whole entry): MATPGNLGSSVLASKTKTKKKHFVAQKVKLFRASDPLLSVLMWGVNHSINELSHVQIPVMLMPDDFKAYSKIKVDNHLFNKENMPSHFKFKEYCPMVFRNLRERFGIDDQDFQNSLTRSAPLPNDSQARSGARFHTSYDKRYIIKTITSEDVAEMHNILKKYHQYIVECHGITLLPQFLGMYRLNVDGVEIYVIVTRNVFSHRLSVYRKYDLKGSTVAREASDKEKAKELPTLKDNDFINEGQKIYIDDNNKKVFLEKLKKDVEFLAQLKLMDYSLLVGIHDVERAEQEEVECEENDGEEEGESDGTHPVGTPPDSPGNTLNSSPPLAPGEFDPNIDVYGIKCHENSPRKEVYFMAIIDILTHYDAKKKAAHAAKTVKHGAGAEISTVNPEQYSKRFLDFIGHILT

[2] = Inhibition of p70S6K ATP Loop labeling site in human Huh-7 cells at 1 uM by KiNativ Profiling analysis relative to control; conditions: condition cancer
[3] = biological target: Cyclin-dependent kinase 2 (Homo sapiens) (UniProt P24941); experiment: Inhibition of CDK2 Lys2 labeling site harbouring VLHRDLKPQNLLINTEGAIK in human Huh-7 cells at 1 uM by KiNativ Profiling analysis relative to control; assay type: cell-based
[4] = biological target: Membrane-associated tyrosine- and threonine-specific cdc2-inhibitory kinase (Homo sapiens) (UniProt Q99640); experiment: Inhibition of PKMYT1 (unknown origin) at 10 uM by Ambit Kinomescan binding assay
[5] = biological target: Serine/threonine-protein kinase Nek4 (Homo sapiens) (UniProt P51957); experiment: Inhibition of NEK4 Lys2 labeling site in human A-375 cells at 0.05 uM by KiNativ Profiling analysis relative to control; assay type: cell-based
[6] = biological target: Activin receptor type-2B (Homo sapiens) (UniProt Q13705); experiment: Inhibition of ACVR2B (unknown origin) at 10 uM by Ambit Kinomescan binding assay
[7] = biological target: T1, Phosphatidylinositol 5-phosphate 4-kinase type-2 alpha (Homo sapiens); experiment: Inhibition of PIP4K2A ATP labeling site in human A-375 cells at 0.05 uM by KiNativ Profiling analysis relative to control; assay type: cell-based
[8] = biological target: Serine/threonine-protein kinase Nek7 (Homo sapiens) (UniProt Q8TDX7); experiment: Inhibition of NEK7 (unknown origin) at 10 uM by Ambit Kinomescan binding assay
[9] = biological target: Serine/threonine-protein kinase RIO2 (Homo sapiens) (UniProt Q9BVS4); experiment: Inhibition of RIOK2 (unknown origin) at 10 uM by Ambit Kinomescan binding assay
[10] = biological target: Casein kinase I isoform delta (Homo sapiens) (UniProt P48730); experiment: Inhibition of CSNK1D (unknown origin) at 10 uM by Ambit Kinomescan binding assay
[11] = biological target: TRAF2 and NCK-interacting protein kinase (Homo sapiens) (UniProt Q9UKE5); experiment: Inhibition of TNIK (unknown origin) at 10 uM by Ambit Kinomescan binding assay relative to control; values are per cent of control
[12] = biological target: Serine/threonine-protein kinase 26 (Homo sapiens) (UniProt Q9P289); experiment: Inhibition of MST4 K1 labeling site in human Huh-7 cells at 1 uM by KiNativ Profiling analysis relative to control; assay type: cell-based
[13] = test system: Phosphatidylinositol 4,5-bisphosphate 3-kinase catalytic subunit alpha isoform (Homo sapiens), P42336 [H1047Y]; experiment: Inhibition of PIK3CA H1047Y mutant (unknown origin) at 1 uM by Ambit Kinomescan binding assay relative to control
[14] = test system: Tyrosine-protein kinase ABL1 (Homo sapiens), P00519 [E255K]; experiment: Inhibition of phosphorylated ABL1 E255K mutant (unknown origin) at 1 uM by Ambit Kinomescan binding assay relative to control; values are per cent of control
[15] = biological target: Mitogen-activated protein kinase 11 (Homo sapiens) (UniProt Q15759); experiment: Inhibition of p38 beta (unknown origin) at 1 uM by Ambit Kinomescan binding assay relative to control; values are per cent of control
[16] = biological target: Serine/threonine-protein kinase pim-3 (Homo sapiens) (UniProt Q86V86); experiment: Inhibition of PIM3 (unknown origin) at 1 uM by Ambit Kinomescan binding assay relative to control; values are per cent of control
[17] = biological target: T2, Phosphatidylinositol 5-phosphate 4-kinase type-2 gamma (Homo sapiens) (UniProt Q8TBX8); experiment: Inhibition of PIP4K2C ATP labeling site harbouring TLVIKEVSSEDIADMHSNLSNYHQYIVK in human A-375 cells at 0.5 uM by KiNativ Profiling analysis relative to control; assay type: cell-based
T2 sequence (whole entry): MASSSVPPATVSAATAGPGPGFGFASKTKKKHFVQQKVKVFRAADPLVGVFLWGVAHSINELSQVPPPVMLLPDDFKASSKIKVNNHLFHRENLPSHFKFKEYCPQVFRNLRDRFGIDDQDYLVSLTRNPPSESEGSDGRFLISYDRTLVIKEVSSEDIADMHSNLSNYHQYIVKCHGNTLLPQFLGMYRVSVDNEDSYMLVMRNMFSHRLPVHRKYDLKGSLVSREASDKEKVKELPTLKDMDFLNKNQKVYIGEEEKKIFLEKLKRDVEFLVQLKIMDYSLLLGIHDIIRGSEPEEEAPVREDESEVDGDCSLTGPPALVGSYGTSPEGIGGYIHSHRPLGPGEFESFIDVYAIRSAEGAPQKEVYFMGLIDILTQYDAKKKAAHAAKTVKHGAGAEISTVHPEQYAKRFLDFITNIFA

[18] = biological target: Serine/threonine-protein kinase 38 (Homo sapiens) (UniProt Q15208); experiment: Inhibition of NDR1 Lys2 labeling site in human A-375 cells at 5 uM by KiNativ Profiling analysis relative to control; assay type: cell-based

Phosphatidylinositol 4,5-bisphosphate 3-kinase catalytic subunit alpha isoform (Homo sapiens), P42336 [H1047Y], sequence (P42336 whole entry H1047Y, canonical isoform): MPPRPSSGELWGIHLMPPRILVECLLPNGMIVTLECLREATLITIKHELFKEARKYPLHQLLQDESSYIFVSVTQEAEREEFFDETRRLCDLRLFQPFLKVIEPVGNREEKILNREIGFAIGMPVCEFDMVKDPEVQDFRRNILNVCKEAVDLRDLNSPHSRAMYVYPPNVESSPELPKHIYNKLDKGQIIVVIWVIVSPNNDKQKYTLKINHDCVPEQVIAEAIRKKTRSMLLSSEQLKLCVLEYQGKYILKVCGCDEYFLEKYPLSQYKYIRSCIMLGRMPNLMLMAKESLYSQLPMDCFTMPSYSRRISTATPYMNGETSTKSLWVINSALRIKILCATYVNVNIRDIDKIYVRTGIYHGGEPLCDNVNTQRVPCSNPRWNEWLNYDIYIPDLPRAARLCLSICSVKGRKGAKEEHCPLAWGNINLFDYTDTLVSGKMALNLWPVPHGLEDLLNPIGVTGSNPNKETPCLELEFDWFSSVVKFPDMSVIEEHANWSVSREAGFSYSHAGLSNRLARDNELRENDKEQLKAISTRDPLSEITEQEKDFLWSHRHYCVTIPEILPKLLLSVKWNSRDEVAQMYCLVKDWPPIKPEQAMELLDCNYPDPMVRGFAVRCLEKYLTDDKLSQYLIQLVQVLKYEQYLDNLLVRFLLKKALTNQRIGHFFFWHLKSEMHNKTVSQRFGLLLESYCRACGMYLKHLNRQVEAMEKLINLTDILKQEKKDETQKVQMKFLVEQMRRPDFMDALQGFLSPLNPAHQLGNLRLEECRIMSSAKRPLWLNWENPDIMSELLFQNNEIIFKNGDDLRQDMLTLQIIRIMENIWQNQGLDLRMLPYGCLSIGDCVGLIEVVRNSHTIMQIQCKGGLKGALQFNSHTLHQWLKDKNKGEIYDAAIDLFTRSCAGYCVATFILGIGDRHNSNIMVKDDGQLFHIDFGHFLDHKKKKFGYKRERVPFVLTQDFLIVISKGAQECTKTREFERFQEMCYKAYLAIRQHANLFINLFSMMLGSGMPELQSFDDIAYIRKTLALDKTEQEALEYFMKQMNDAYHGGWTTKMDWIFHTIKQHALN
TRAF2 and NCK-interacting protein kinase (Homo sapiens), sequence (Q9UKE5 whole entry, looked up): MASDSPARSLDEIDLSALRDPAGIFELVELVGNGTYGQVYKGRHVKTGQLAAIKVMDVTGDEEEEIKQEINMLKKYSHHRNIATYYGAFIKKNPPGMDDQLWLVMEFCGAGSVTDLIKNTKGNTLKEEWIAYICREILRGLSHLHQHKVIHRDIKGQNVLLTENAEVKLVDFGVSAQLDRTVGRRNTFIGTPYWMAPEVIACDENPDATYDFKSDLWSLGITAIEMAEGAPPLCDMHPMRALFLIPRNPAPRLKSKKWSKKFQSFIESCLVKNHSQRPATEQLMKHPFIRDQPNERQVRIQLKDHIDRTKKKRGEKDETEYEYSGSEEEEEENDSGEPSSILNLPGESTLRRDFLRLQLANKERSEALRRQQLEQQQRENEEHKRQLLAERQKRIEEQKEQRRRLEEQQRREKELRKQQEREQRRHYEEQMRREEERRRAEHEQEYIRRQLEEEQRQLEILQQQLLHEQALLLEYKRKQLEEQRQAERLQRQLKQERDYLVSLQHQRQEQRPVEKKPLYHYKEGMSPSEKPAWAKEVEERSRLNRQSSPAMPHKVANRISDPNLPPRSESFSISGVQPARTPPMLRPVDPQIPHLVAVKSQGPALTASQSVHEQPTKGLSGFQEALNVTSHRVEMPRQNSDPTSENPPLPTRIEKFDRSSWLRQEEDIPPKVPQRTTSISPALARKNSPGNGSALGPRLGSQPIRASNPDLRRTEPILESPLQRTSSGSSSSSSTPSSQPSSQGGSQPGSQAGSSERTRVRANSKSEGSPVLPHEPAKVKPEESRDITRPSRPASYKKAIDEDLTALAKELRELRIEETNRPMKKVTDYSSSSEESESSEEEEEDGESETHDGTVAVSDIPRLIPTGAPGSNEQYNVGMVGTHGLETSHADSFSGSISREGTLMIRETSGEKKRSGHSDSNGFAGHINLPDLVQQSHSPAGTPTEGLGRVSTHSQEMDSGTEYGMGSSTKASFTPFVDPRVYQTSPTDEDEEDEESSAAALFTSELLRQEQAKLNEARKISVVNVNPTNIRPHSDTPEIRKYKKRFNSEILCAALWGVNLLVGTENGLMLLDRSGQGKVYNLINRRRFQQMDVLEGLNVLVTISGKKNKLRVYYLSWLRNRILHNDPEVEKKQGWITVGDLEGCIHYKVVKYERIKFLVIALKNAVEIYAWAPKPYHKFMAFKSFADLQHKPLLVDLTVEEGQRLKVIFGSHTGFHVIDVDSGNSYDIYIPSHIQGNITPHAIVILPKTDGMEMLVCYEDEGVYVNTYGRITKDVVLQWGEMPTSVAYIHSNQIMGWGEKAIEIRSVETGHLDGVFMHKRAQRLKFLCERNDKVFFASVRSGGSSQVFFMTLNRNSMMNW
Activin receptor type-2B (Homo sapiens), sequence (Q13705 whole entry): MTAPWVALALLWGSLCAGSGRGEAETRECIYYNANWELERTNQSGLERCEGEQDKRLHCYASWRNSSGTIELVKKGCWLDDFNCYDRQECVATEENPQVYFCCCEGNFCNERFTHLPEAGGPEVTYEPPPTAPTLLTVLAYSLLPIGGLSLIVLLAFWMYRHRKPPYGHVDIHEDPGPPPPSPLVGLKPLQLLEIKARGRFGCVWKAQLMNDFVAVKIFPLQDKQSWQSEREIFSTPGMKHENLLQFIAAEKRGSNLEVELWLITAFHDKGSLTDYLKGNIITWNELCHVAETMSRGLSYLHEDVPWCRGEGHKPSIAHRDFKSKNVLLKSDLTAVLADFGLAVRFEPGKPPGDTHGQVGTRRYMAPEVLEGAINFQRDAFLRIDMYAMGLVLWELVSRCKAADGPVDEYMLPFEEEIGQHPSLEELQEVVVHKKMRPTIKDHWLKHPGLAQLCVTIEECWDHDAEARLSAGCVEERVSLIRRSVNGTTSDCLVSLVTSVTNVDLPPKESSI
Mitogen-activated protein kinase 11 (Homo sapiens), sequence (Q15759 whole entry): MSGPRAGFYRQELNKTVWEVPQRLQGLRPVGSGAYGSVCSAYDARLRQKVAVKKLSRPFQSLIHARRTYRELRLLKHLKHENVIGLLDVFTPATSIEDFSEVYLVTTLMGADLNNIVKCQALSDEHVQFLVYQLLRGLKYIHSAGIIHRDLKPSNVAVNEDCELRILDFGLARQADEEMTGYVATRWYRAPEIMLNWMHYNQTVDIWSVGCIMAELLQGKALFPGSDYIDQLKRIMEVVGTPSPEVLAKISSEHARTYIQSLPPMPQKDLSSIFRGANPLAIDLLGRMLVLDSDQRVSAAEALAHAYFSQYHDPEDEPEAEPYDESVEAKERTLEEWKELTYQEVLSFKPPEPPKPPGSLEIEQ
Membrane-associated tyrosine- and threonine-specific cdc2-inhibitory kinase (Homo sapiens), sequence (Q99640 whole entry): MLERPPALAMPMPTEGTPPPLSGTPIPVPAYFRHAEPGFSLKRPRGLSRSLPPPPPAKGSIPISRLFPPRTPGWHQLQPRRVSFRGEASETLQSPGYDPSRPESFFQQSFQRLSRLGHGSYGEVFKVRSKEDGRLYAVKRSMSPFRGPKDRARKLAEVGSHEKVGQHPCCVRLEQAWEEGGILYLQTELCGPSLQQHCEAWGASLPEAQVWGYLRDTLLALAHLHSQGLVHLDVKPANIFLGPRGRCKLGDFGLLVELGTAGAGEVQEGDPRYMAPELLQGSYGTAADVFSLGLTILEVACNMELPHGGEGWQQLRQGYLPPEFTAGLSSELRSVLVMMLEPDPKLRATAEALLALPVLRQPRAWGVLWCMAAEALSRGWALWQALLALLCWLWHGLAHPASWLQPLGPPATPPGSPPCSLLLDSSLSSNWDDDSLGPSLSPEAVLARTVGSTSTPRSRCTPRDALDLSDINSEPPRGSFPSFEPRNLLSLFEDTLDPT
Serine/threonine-protein kinase Nek4 (Homo sapiens), sequence (P51957 whole entry, looked up): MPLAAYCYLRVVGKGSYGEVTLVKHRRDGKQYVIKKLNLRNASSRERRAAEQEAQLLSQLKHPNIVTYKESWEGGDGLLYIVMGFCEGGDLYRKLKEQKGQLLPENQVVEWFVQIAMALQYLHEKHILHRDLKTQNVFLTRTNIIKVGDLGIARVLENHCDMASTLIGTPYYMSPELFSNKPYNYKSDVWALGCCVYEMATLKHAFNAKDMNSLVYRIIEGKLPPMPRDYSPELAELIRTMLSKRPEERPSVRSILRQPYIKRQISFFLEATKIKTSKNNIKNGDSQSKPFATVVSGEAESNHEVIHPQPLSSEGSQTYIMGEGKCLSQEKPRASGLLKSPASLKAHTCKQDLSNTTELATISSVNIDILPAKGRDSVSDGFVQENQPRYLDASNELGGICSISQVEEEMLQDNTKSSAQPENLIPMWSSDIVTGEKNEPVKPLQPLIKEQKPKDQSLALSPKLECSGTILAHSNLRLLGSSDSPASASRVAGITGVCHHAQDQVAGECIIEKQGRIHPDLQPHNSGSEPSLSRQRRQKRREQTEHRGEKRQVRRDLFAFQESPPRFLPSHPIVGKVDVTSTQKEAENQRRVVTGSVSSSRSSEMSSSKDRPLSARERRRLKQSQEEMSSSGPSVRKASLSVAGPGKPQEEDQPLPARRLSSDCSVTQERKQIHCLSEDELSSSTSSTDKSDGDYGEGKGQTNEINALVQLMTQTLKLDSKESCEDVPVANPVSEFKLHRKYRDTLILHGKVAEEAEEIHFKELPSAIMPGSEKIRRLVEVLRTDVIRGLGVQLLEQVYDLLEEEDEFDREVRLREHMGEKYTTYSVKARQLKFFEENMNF

## CNc1cc(Oc2cc(C(=O)Nc3cc(N4CCN(C)CC4)cc(C(F)(F)F)c3)ccc2C)ncn1
[1]
  inhibition: 0.1%
[2]
  inhibition at 1 µM: -44.2%
[3]
  inhibition: 29.3%

## CCN1CCN(Cc2ccc(NC(=O)c3ccc(C)c(Oc4ccnc5[nH]ccc45)c3)cc2C(F)(F)F)CC1
[4]
  inhibition: inactive
[5]
  inhibition: 15.2%
[6]
  inhibition: inactive
[7]
  inhibition: 13.2%
[8]
  inhibition: inactive
[9]
  inhibition: inactive
[10]
  inhibition: inactive
[11]
  residual activity: 8.2%
[12]
  inhibition: 5.3%

## CCN1CCN(Cc2ccc(NC(=O)c3ccc(C)c(/C=C/c4cnc5[nH]ccc5c4OC)c3)cc2C(F)(F)F)CC1
[13]
  inhibition: 71%
[14]
  percent of control: 0.85%
[15]
  percent of control: 0.3%
[16]
  residual activity: 100%
[17]
  inhibition: 5.9%
[18]
  inhibition: 25.3%
